As a reminder, the melting point is the temperature, or range, at which the solid turns liquid.

This note sets out measurements from a melting point compilation (Tetko et al.; mined from patent text by program, amines drawn as free bases though some values may be those of a salt).

A value given as a limit tells only on which side of the number the result lay.

In the case of `O=[N+]([O-])c1ccc2ncnc(Nc3ccc4ncccc4c3)c2c1`, the melting point was greater than 300 °C.
In the case of `CS(=O)(=O)NC(=O)c1cccc(N)c1` it was 153 to 155 °C; in that of `CCOC(=O)C1CCCN(c2ccc([N+](=O)[O-])c(C=C3NC(=O)NC3=O)c2)C1` (centres undefined), 223 to 225 °C; in that of `CCc1nn(C2CCCC2)c2cc(C(=O)Nc3cccnc3)ccc12`, 133 to 135 °C.
In the case of `CC(C)(C)C(=O)C(Oc1ccccc1)C(=O)Nc1ccc(Cl)cc1Cl` (centres undefined) it was 112 to 114 °C; in that of `COc1cccnc1Br`, 34 °C; in that of `Cn1ncc(NCCCN2CCC(c3noc4cc(F)ccc34)CC2)cc1=O`, 163 to 165 °C.
In the case of `O=C(c1ccc(Cl)cc1)c1cc(-c2ccncc2)c(N2CCOCC2)s1` it was 176 °C.
In the case of `CCn1cc(C(=O)O)c(=O)c2cc(F)c(S(=O)(=O)CC)nc21`, the melting point lay in the range of 249 to 252 °C.
As for `O=C(O)c1cn(Cc2nccs2)c2cc(N3CCN(c4ccncc4)CC3)ccc2c1=O`, the melting point was 273 to 276 °C.
Regarding `O=C(O)c1nc2c(=O)[nH]c3cc(C(F)(F)F)ccc3n2c1CNc1ccc2c(c1)OCO2`, the melting point is greater than 250 °C.
As to `Cn1c(C(F)(F)F)nc2c(OCc3ccccc3)cc(Br)cc21`, the melting point was 141 to 142 °C.
`CCCCCCCCCCCCCCOCC(CO)(CO)COCCCCCCCCCCCCCC` yielded a melting point of 63 to 64 °C.
The same measure for `OCC1Cn2c(nc3ccccc32)-c2ccccc2O1` (centres undefined): 142 to 144 °C.
The same measure for `O=S(=O)(CCC=C(F)F)c1nccc(-c2ccccc2)n1`: 103 to 104 °C.
`CC1(c2ccc(S(N)(=O)=O)cc2)Cc2cc(OCC(=O)O)c(Cl)c(Cl)c2C1=O` (centres undefined) gave a melting point of 258 to 260 °C.
Consider `OC1CSC(Oc2cccc(-c3ccncc3)n2)C(O)C1O` (centres undefined), for which the melting point was found to be 178 °C.
The same measure for `O=C(NC(=O)c1c(F)cccc1F)Nc1ccc(OC(F)(F)C(F)F)c(C(F)(F)F)c1`: 182 to 185 °C.
The same measure for `COc1ccc(C2CCN(C(=O)CC(N)=O)CC2)cc1OC1CCCC1`: 132 to 133 °C.
The same measure for `O=C(O)c1cc2c(C(F)(F)F)c(F)ccc2[nH]1`: 204 to 210 °C.
The molecule `O=c1[nH]c2scc(C3CC3)c2[nH]c1=O` returned a melting point greater than 250 °C.
`CCOC(=O)c1[nH]cc2c1NC1=C(C(=O)CCC1)C2c1ccc(Sc2nc3cc(OC)ccc3[nH]2)o1` (centres undefined): the melting point came out at 140 °C.
Molecule `COCCOc1cc(NC(=O)OC(C)(C)C)c(NC(=O)CC(=O)c2cccc(-n3ccnc3)c2)cc1C#Cc1ccccc1` displayed a melting point of 122 to 129 °C.
`CCOC(=O)c1cc2c(C(F)(F)F)ccc3c2n1CCN3C` gave a melting point of 91 to 92 °C.
As for `COC(=O)C(C)N(C(=O)CO)c1c(C)csc1C` (centres undefined), the melting point was in the range of 69 to 70 °C.
The same measure for `O=C(c1ccc(-n2cncn2)cc1)N1CCC(NCCc2ccc(Cl)cc2)CC1`: 131 to 132 °C; for `Nc1cc(C(F)(F)F)cnc1N`: 97 to 99 °C.
For `CCS(=O)(=O)c1ccc2cc(C(=O)O)ccc2c1`, the melting point came out at 241 °C.
In turn, `CN(C(=O)N[C@@H](Cc1ccc(Oc2nccc3ccncc23)cc1)C(=O)O)c1ccccc1Cc1ccccc1` showed a melting point of 128 °C.
In turn, `O=C(O)[C@@H]1C[C@@H](C(=O)O)N(C(=O)OCc2ccccc2)C1` displayed a melting point of 98 to 100 °C.
The same measure for `CNc1nonc1-c1nc2ccccc2n1CC(=O)c1ccc(Cl)cc1`: 210 to 214 °C.
In the case of `C/C(=N\OCCN1CCOCC1)[C@H]1CC[C@H]2[C@@H]3CC=C4C[C@@H](O)CC[C@]4(C)[C@H]3CC[C@]12C` it was 137 to 138 °C; in that of `COc1cccc(C2C(=O)NC(=O)C2c2cn3c4c(cccc24)CCC3)c1` (centres undefined), 87 to 91 °C; in that of `CC1CCC(=NNc2ccccc2)c2ncc(C(=O)O)c(=O)n21` (single isomer, unassigned; (-)), 255 to 256 °C.
